Experimental data from patent publication US20250340519A1, “RADIOLABELLED COMPOUND” (OXFORD UNIVERSITY INNOVATION LIMITED, priority 2018, published 2025).

Columns and labels:
[1] = female mice, intravenous bolus 20 mg/kg; cited from earlier work
[2] = tested on: U87MG and U251MG cells; assay: Blocking of 18F-olaparib uptake in U87MG and U251MG cells; format: cell-based; details: 100 μM cold olaparib vs 1 μM ^18F-olaparib
Description: Olaparib (1) was used at various concentrations to block 1 μM of the radiolabelled isotopologue, ^18F-olparib (compound 3); see FIG. 26.

[3] = tested on: PANC-1 cells; assay: Cell uptake of [18F]olaparib in PANC-1 cells; format: cell-based, human; details: excess of unlabelled inhibitor
Description: PARP1 levels in a limited selection of PDAC cell lines were determined using Western blot and confirmed by immunofluorescence microscopy. […] Uptake was reported as a percentage of the total amount added, per mg of total protein recovered from the isolated cells, determined by BCA assay. Specificity of uptake was determined by blocking olaparib binding sites using an excess of cold, unlabeled olaparib, or other PARP inhibitors (rucaparib, talazoparib).
Cell uptake of ^18F-olaparib in Panc-1, MiaPaCa-2 and Capan-1 cells was determined as previously described (Cornelissen, B., Hu, M., McLarty, K., Costantini, D. & Reilly, R. M.
Cellular penetration and nuclear importation properties of 111In-labeled and 123I-labeled HIV-1 tat peptide immunoconjugates in BT-474 human breast cancer cells. Nucl Med Biol 34, 37-46, 2007; Thurber, G. M., Reiner, T., Yang, K. S., Kohler, R. H. & Weissleder, R. Effect of small-molecule modification on single-cell pharmacokinetics of PARP inhibitors. Molecular cancer therapeutics 13, 986-995, 2014; Reiner, T., et al. Imaging therapeutic PARP inhibition in vivo through bioorthogonally developed companion imaging agents. Neoplasia 14, 169-177, 2012). Aliquots of Panc-1, MiaPaca-2, and Capan-1 cells (1.5×10^5 cells/well) were seeded in 24-well plates in warm cell culture medium (500 μL) and the cells were allowed to adhere overnight. Cells were irradiated (10 Gy; dose rate 0.8 Gy/min) or sham-irradiated and then returned to an incubator (37° C., 5% CO2) for 2 h. […] In the blocking groups, non-radioactive olaparib, talazoparib, or rucaparib were also added in increasing concentrations (10 pM-10 μM. After 30 or 60 minutes, the cell culture medium was removed and combined with two washes (500 μL) of cell culture medium. The remaining monolayer of cells was then lysed with 0.1 M sodium hydroxide for 20 minutes at room temperature. The amount of radioactivity contained within the cell culture medium and the cell lysate fractions was measured using a gamma counter. Protein levels from parallel plates were quantified using a Pierce BCA protein assay kit (Thermo Scientific) according to the manufacturer's recommendations and bovine serum albumin was used as the protein standard. Cell uptake levels of [^18F]-olaparib were normalised to percent of the total added radioactivity per milligram protein. […] IC50 values were calculated using GraphPad Prism software (GraphPad Software, San Diego, CA, USA). […]
Aliquots of Panc-1, MiaPaca-2, and Capan-1 cells (7.5×10^4 cells/well) were seeded in 24-well plates in warm cell culture medium (500 μL). […] The amount of radioactivity contained within the cell culture medium and the cell lysate fractions was measured using a gamma counter. […]

[4] = tested on: U87MG and U251MG xenografts; assay: 18F-olaparib biodistribution in U87MG and U251MG tumour xenograft mouse models; format: in vivo, Balb/c nude mice; details: 20 μg cold olaparib prior to 1 μg ^18F-olaparib, tail vein
Description: U87MG and U251MG xenografts were generated in Balb/c nude mice. The xenograft models were administered various doses (0.5, 1.0, 4.0, and 8.0 μg) of ^18F-olaparib by tail vein injection. At 60-120 min post-injection, mice were sacrificed and organs were collected for biodistribution; see FIGS. 27(a) and (b), and FIG. 28(a). […] We predicted that the uptake for the U251MG xenografts would be greater, but in vivo there is no significant difference between the % ID/g for the U251MG or U87MG xenograft tumours.
A 20-fold excess of cold olaparib was injected via tail vein 60 m prior to 1 μg of ^18F-olaparib via tail vein. The mice were sacrificed at 60-120 min post-injection and organs were harvested.

Compound: O=C(c1cc(Cc2n[nH]c(=O)c3ccccc23)ccc1F)N1CCN(C(=O)C2CC2)CC1 [Compound 1, 4-(3-(4-(cyclopropanecabonyl)piperazine-1-carbnonyl)-4-fluorobenzyl)phthalazin-1(2H)-one]
- previously reported half-life [1]: 58 min
- blocking of ^18F-olaparib uptake in vitro [2]: ~70%
- blocking of [^18F]olaparib uptake by excess PARP inhibitor [3]: could be blocked
- blocking of ^18F-olaparib tumour uptake in vivo [4]: ~75%

Compound: CNCc1ccc(-c2[nH]c3cc(F)cc4c3c2CCNC4=O)cc1 [rucaparib]
- blocking of [^18F]olaparib uptake by excess PARP inhibitor [3]: could be blocked

Compound: Cn1ncnc1[C@H]1c2n[nH]c(=O)c3cc(F)cc(c23)N[C@@H]1c1ccc(F)cc1 [talazoparib]
- blocking of [^18F]olaparib uptake by excess PARP inhibitor [3]: could be blocked
